The supplement of paper PMC10307832

Experiments:
Experiment in all cases: relative viability (nuclei count vs DMSO), 5 days (fraction); higher = more cells survive
[1] = compound: CC1=CC(=C(N1C2=CC=C(C=C2)Cl)C)C(=O)CN3CCCCC3 [IU1-47] + CC(C)C[C@H](NC(=O)[C@H](Cc1ccccc1)NC(=O)c1cnccn1)B(O)O [Bortezomib] (partner 0.002 µM)
How it was run: (§1)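 Lung cancer cell lines in 1536-well plates got either a single drug or a fixed anchor-drug dose together with five library-drug doses (not always all listed) in √10 steps, by pin tool, on the day after seeding. Nuclei were counted after 5 days, and relative viability is the treated-to-vehicle ratio of nuclei counts. Values are medians of duplicate plates.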

[2] = compound: CC1=CC(=C(N1C2=CC=C(C=C2)Cl)C)C(=O)CN3CCCCC3 [IU1-47] + CCNC(=O)c1noc(-c2cc(C(C)C)c(O)cc2O)c1-c1ccc(CN2CCOCC2)cc1 [Luminespib] (partner 0.01 µM)
How it was run: as §1

[3] = compound: CC1=CC(=C(N1C2=CC=C(C=C2)Cl)C)C(=O)CN3CCCCC3 [IU1-47] + Cc1nc(Nc2ncc(C(=O)Nc3c(C)cccc3Cl)s2)cc(N2CCN(CCO)CC2)n1 [Dasatinib] (partner 0.075 µM)
How it was run: as §1

[4] = compound: Cc1nc(C(=O)NCC(=O)O)c(O)c2ccc(Oc3ccccc3)cc12 [FG-4592] + CS(=O)(=O)CCNCc1ccc(-c2ccc3ncnc(Nc4ccc(OCc5cccc(F)c5)c(Cl)c4)c3c2)o1 [Lapatinib] (partner 2 µM)
How it was run: as §1

UMC-11
relative viability ([1]; first compound 0.08 µM): 0.653
relative viability ([1]; first compound 0.253 µM): 0.618
relative viability ([1]; first compound 0.8 µM): 0.673
relative viability ([1]; first compound 2.53 µM): 1.04
relative viability ([1]; first compound 8 µM): 0.575
relative viability ([2]; first compound 0.08 µM): 1.08
relative viability ([2]; first compound 0.253 µM): 0.974
relative viability ([2]; first compound 0.8 µM): 1.09
relative viability ([2]; first compound 2.53 µM): 1.06
relative viability ([2]; first compound 8 µM): 0.938
relative viability ([3]; first compound 0.08 µM): 0.429
relative viability ([3]; first compound 0.253 µM): 0.423
relative viability ([3]; first compound 0.8 µM): 0.572
relative viability ([3]; first compound 2.53 µM): 0.388
relative viability ([3]; first compound 8 µM): 0.341
relative viability ([4]; first compound 0.08 µM): 0.948
relative viability ([4]; first compound 0.253 µM): 0.955
relative viability ([4]; first compound 0.8 µM): 0.8
relative viability ([4]; first compound 2.53 µM): 0.936
relative viability ([4]; first compound 8 µM): 0.822
